Experimental data published in patent US5565435A (Kabushiki Kaisha Hayashibara Seibutsu Kagaku Kenkyujo, priority 1991, dated 1996).
≈ marks a conversion by molar mass, not a printed value.

How the values were obtained:
[1] = Antioxidation activity (hydroperoxide formed by oxidation of linoleic acid, HPLC); conditions: 200 ppm, 50° C., light-shielded
Description: Ten ml of about one % linoleic acid in ethanol solution, 10 ml of 50 mM phosphate buffer and 5 ml water were mixed, and 5 ml aliquots of the mixture were distributed to 5 ml-flasks. […] A half ml of solution was sampled from each flask at a prescribed time interval, and the sampled solution was subjected to high-performance liquid chromatography (HPLC) to analyze the amount of hydroperoxide which was formed as a result of the oxidation of linoleic acid. The conditions used in the analysis of hydroperoxide were as follows:
Apparatus : WATERS MODEL M-6000A, a pump system commercialized by Japan Waters Ltd., Tokyo, Japan;
Column : ODS-M column, a column commercialized by Shimadzu Techno-Research,Inc., Kyoto, Japan;
Column temperature : 35° C.
Eluate : water:methanol:acetic acid =75:25:0.1
Detection wave length: at 235 nm

Solubility in solvent = assay type: physicochemical; conditions: 25° C. water (pH 7)

SMILES	Relative intensity determined with the peak area corresponding to hydroperoxide, sampling day 0 ([1]; day 0, Control 0.3)	Relative intensity determined with the peak area corresponding to hydroperoxide, sampling day 4 ([1]; day 4, Control 1.5)	Relative intensity determined with the peak area corresponding to hydroperoxide, sampling day 7 ([1]; day 7, Control 5.3)	Relative intensity determined with the peak area corresponding to hydroperoxide, sampling day 8 ([1]; day 8, Control 7.1)	solubility (Solubility in solvent)
Cc1c(C)c2c(c(C)c1O)CCC(C)(CCCC(C)CCCC(C)CCCC(C)C)O2 (racemic) [dl-α-Tocopherol]	0.3	1.1	4.5	6.0	
O=c1c(O)c(-c2ccc(O)c(O)c2)oc2cc(O)cc(O)c12 [quercetin]					~2 µg/mL (≈ 6.62 µM)
